The test deals with T1, recombinant human pancreatic GLK (Homo sapiens, UniProt P35557).
T1 sequence (P35557 1-465): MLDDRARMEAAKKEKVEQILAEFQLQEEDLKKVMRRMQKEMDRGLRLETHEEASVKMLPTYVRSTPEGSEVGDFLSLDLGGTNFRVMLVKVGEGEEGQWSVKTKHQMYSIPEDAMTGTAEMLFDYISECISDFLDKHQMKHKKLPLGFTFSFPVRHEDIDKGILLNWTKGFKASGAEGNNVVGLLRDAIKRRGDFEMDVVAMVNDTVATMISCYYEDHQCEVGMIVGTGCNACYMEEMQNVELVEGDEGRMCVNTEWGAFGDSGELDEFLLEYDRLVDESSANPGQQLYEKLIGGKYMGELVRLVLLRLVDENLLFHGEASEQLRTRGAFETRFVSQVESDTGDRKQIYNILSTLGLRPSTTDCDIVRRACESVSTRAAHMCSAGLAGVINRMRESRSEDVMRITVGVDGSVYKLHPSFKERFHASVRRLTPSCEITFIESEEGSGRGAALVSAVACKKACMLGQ
Kind of test: biochemical.

With `C[C@@H](COC(F)F)Oc1cc(Oc2ccc(C(=O)N3CCC3)cc2Cl)cc(C(=O)Nc2ccn(C)n2)c1` [Example 1, 3-{[4-(Azetidin-1-ylcarbonyl)-2-chlorophenyl]oxy}-5-({(1S)-2-[(difluoromethyl)oxy]-1-methylethyvl}oxy)-N-(1-methyl-1H-pyrazol-3-yl)benzamide], the 50% effective concentration (EC50) is 40 nM.

By EC50 is commonly meant the concentration needed to bring the measured effect to its halfway point.

These data come from US20080234273A1, “Heteroaryl Benzamide Derivatives for Use as Glk Activators in the Treatment of Diabetes” (priority 2005, published 2008).
